Test results as given in patent US20220340687A1 (NOVARTIS AG, priority 2019, published 2022).

Columns and labels:
Assay type in all cases: cell-based, human
[1] = test system: pDCs cocultured with naïve CD4+ T cells; assay: Blocking experiments (IDO, PD-L1, IFN-α) on Treg cells generation by pDCs in coculture; details: added to the coculture; p=0.07
Source text: Additionally, it is claimed that IFN-α itself induces the generation of Treg cells.

[2] = test system: pDCs cocultured with naïve CD4+ T cells; assay: Generation of Treg cells by pDCs: omalizumab in comparison to corticosteroids; details: 5 or 10 mg/mL of omalizumab for 24 hours before crosslinker and TLR9-L; coculture 5 days
Procedure: After 24 hours, the pDCs were washed and cocultured with naïve CD4+ T cells for 5 days.

pDCs [3] = assay: Viability of pDCs after incubation with Oma; details: 24 hours incubation with Oma
Procedure: (§1) A) Left: Frequency of FcεR1α-bound IgE+ cells gated in pDCs. Right: Frequency of cells with unoccupied FcεR1, gated in pDCs (n=4). B) Viability of pDCs after 24 hours incubation with Oma (n=2). Values are given as mean±SEM. **p<0.01, *p<0.05 in paired t-test comparing multiple conditions.

pDCs [4] = assay: Cytokine signature of TLR9-L-activated pDCs under IgE-FcεR1-crosslinker (ELISA); details: omalizumab 10 mg/mL 24 hours prior to crosslinker and TLR9-L, ELISA 24 hours after activation, compared to crosslinker condition
Procedure: Then, the cytokine profile was analysed by ELISA 24 hours after activation.

[5] = test system: IgE bound to FcεR1 on pDCs; assay: Removal of membrane-bound IgE from purified pDCs; details: pDCs from atopic donors, IL-3, 5, 10 and mg/mL of Oma, 24 hours
Procedure: as §1

Sequence of IgE bound to FcεR1 on pDCs (P01854 1-428 isoform P01854-1): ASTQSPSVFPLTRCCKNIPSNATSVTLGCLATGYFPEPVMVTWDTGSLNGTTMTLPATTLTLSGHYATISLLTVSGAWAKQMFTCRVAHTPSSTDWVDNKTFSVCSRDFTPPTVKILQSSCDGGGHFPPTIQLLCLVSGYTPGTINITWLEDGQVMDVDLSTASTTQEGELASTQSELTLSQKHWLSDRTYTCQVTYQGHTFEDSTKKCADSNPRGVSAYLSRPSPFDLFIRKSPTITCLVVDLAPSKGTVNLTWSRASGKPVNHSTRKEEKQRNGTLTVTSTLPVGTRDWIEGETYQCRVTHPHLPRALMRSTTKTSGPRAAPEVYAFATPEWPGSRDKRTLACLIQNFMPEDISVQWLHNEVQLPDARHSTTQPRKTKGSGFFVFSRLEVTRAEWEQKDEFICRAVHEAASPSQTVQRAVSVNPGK

## Nc1ccccc1C(=O)CC(N)C(=O)O (centres unmarked) [kyn, kynurenine]
[1]
  pDCs capacity to induce Treg cells under IgE-FcεR1-crosslinker condition: increased

## Omalizumab: recombinant DNA-derived humanized monoclonal antibody that selectively binds to free, circulating human immunoglobulin E (IgE)
[2]
  crosslinker-induced decrease of the frequency of induced Treg cells: reverted by Omalizumab in a dose dependent manner
pDCs [3]
  pDCs viability: did not affect pDCs viability
pDCs [4]; p=0.04
  TNF-α levels: retained low TNF-α levels
pDCs [4]; p=0.05
  pDCs capacity to produce IFN-α: restored pDCs capacity to produce IFN-α
[5]
  IgE bound to FcεR1 on pDCs (IgE mean fluorescence intensity, MFI): decrease in IgE mean fluorescence intensity (MFI) in a dose-dependent manner
  frequency of pDCs with FcεR1-bound IgE (FcεR1+IgE+pDCs): significant reduction
  levels of pDCs with unoccupied FcεR1 (FcεR1+IgE-pDCs): increased levels
